# In US20250163104A1, “MACROCYCLIC IMMUNOMODULATORS” (priority 2021, published 2025):
# Where a SMILES comes first, the peptide text is derived from it. Bridges are numbered along the chain shown (N, C = ends). [ ]: non-standard residue; d: D form. The star is where a group is joined. ξ: configuration not given here. Phe(4-COOH) = N[C@@H](Cc1ccc(C(=O)O)cc1)C(=O)O; Phe(2,4-Cl2) = N[C@@H](Cc1ccc(Cl)cc1Cl)C(=O)O; Tyr(3-Cl) = N[C@@H](Cc1ccc(O)c(Cl)c1)C(=O)O; Bip = N[C@@H](Cc1ccc(-c2ccccc2)cc1)C(=O)O; Phe(3-Me) = Cc1cccc(C[C@H](N)C(=O)O)c1; Val(3-OH) = CC(C)(O)[C@H](N)C(=O)O; 3Pal = N[C@@H](Cc1cccnc1)C(=O)O; Cha = N[C@@H](CC1CCCCC1)C(=O)O; Cit = NC(=O)NCCC[C@H](N)C(=O)O; Ile(3ξ) = CCC(C)[C@H](N)C(=O)O; Thr(3ξ) = CC(O)[C@H](N)C(=O)O; Ahp(2) = CCCCC[C@H](N)C(=O)O; Carboxymethyl = O=C(O)C*; Nle = CCCC[C@H](N)C(=O)O; Orn = NCCC[C@H](N)C(=O)O; Pra = C#CC[C@H](N)C(=O)O; Dab = NCC[C@H](N)C(=O)O; Dap = NC[C@H](N)C(=O)O
# Target: T1, human PD-1 / PD-L1-Ig binding on Jurkat cell line over-expressing human PD-1 (Jurkat-PD-1) (Homo sapiens, UniProt Q15116)
# T1 construct: expressed in transfected cells; host or cells: Jurkat
# T1 sequence (Q15116 25-288): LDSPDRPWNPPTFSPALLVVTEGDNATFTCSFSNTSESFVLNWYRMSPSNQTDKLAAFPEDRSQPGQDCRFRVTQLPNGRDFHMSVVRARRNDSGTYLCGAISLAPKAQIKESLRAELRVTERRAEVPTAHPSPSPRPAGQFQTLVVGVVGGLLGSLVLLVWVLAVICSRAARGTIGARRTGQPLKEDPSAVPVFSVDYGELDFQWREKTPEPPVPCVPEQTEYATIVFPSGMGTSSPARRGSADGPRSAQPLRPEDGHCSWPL
# Test: Jurkat-PD-1 Cell Binding High-Content Screening Assay (CBA)
# Format: cell-based
# Conditions: Jurkat HPD1_PDL1 IC50, Jurkat-PD-1 cells, PE-labeled PD-L1-Ig 20 nM final
# Summary of the method: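 Read-out: high-content imaging of PE-tagged PD-L1-Ig bound to Jurkat cells overexpressing human PD-1, after fixation with 4% paraformaldehyde and Hoechst 33342 nuclear staining. Ligand was used at 20 nM final for 1 hour, after a 2 h compound exposure at 37° C in serum-containing DMEM.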
row,SMILES,IC50
1,CC[C@H](C)[C@@H]1NC(=O)[C@H](Cc2ccc(-c3ccccc3)cc2)NC(=O)[C@H](C(C)C)NC(=O)[C@H](Cc2cccc(Cl)c2)NC(=O)[C@H](CC(=O)O)NC(=O)[C@H](Cc2ccc(OCC(=O)O)cc2)NC(=O)[C@H](Cc2ccc(OCC(=O)O)cc2)NC(=O)CSC[C@@H](C(=O)N[C@@H](C)C(N)=O)NC(=O)[C@H]([C@@H](C)O)NC(=O)[C@H](C(C)C)NC(=O)[C@H](CC2CCCCC2)NC(=O)[C@H](CCN)NC(=O)[C@@H](CC(C)C)NC(=O)[C@H](CCCN)NC1=O [Compound 1568],24.5 nM

# Same assay, conditions: Jurkat-PD-1 cells, PE-labeled PD-L1-Ig 20 nM final; read-out: Jurkat HPD1_PDL1 IC50
row,SMILES,IC50
1,"CC(C)C[C@H]1NC(=O)[C@H](CCCN)NC(=O)[C@H](CCC(=O)O)NC(=O)[C@H](Cc2ccc(-c3ccccc3)cc2)NC(=O)[C@H](C(C)C)NC(=O)[C@H](Cc2c[nH]c3ccccc23)NC(=O)[C@H](CC(=O)O)NC(=O)[C@H](Cc2ccc(OCC(=O)O)cc2)NC(=O)[C@H](CN)NC(=O)CSC[C@@H](C(=O)N[C@@H](C)C(N)=O)NC(=O)[C@H]([C@@H](C)O)NC(=O)[C@H](C(C)C)NC(=O)[C@H](Cc2ccc(Cl)cc2Cl)NC(=O)[C@H](CCN)NC1=O [Compound 1478] ({CH2CO}-[Dap]Y(Carboxymethyl)DWV[Bip]E[Orn][dL][Dab][Phe(2,4-Cl2)]VTCA-NH2; thioether N-14)",120 nM
2,Cc1cccc(C[C@@H]2NC(=O)[C@H](CC(=O)O)NC(=O)[C@H](Cc3ccc(OCC(=O)O)cc3)NC(=O)[C@H](Cc3cccnc3)NC(=O)CSC[C@@H](C(=O)N[C@@H](C)C(N)=O)NC(=O)[C@H]([C@@H](C)O)NC(=O)[C@H](C(C)C)NC(=O)[C@H](CC(C)C)NC(=O)[C@H](CCN)NC(=O)[C@@H](CC(C)C)NC(=O)[C@H](CCCN)NC(=O)[C@H](CCCNC(N)=O)NC(=O)[C@H](Cc3ccc(-c4ccccc4)cc3)NC(=O)[C@H](C(C)C)NC2=O)c1 [Compound 1225] ({CH2CO}-[3Pal]Y(Carboxymethyl)D[Phe(3-Me)]V[Bip][Cit][Orn][dL][Dab]LVTCA-NH2; thioether N-14),6.2 nM
3,CC(C)C[C@@H]1NC(=O)[C@H](CCN)NC(=O)[C@@H](CC(C)C)NC(=O)[C@H](CN)NC(=O)[C@H](CCCNC(=N)N)NC(=O)[C@H](Cc2ccc(-c3ccccc3)cc2)NC(=O)[C@H](C(C)C)NC(=O)[C@H](Cc2c[nH]c3ccccc23)NC(=O)[C@H](CC(=O)O)NC(=O)[C@H](Cc2ccc(O)cc2)NC(=O)[C@H](CC(N)=O)NC(=O)CSC[C@@H](C(=O)N[C@@H](C)C(N)=O)NC(=O)[C@H]([C@@H](C)O)NC(=O)[C@H](C(C)C)NC1=O [Compound 1009] ({CH2CO}-NYDWV[Bip]R[Dap][dL][Dab]LVTCA-NH2; thioether N-14),52.9 nM
4,CCCC[C@@H]1NC(=O)[C@H](CCCNC(=N)N)NC(=O)[C@@H](CC(C)C)NC(=O)[C@H](CCCN)NC(=O)[C@H](CCCNC(N)=O)NC(=O)[C@H](Cc2ccc(-c3ccccc3)cc2)NC(=O)[C@H](C(C)C)NC(=O)[C@H](Cc2c[nH]c3ccccc23)NC(=O)[C@H](CC(=O)O)NC(=O)[C@H](Cc2ccc(O)cc2)NC(=O)[C@H](Cc2ccc(OCC(=O)O)cc2)NC(=O)CSC[C@@H](C(=O)N[C@@H](C)C(N)=O)NC(=O)[C@H]([C@@H](C)O)NC(=O)[C@H](C(C)C)NC1=O [Compound 1176] ({CH2CO}-Y(Carboxymethyl)YDWV[Bip][Cit][Orn][dL]R[Nle]VTCA-NH2; thioether N-14),75.7 nM
5,C#CC[C@H](NC(=O)CNC(=O)[C@@H]1CSCC(=O)N[C@@H](CCN)C(=O)N[C@@H](Cc2ccc(OCC(=O)O)cc2)C(=O)N[C@@H](CC(=O)O)C(=O)N[C@@H](Cc2c[nH]c3ccccc23)C(=O)N[C@@H](C(C)C)C(=O)N[C@@H](Cc2ccc(-c3ccccc3)cc2)C(=O)N[C@@H](C(C)CC)C(=O)N[C@@H](CCCN)C(=O)N[C@H](CC(C)C)C(=O)N[C@@H](CCN)C(=O)N[C@@H](CC2CCCCC2)C(=O)N[C@@H](C(C)(C)O)C(=O)N[C@@H](CO)C(=O)N1)C(=O)O (stereo partly drawn) [Compound 2319] ({CH2CO}-[Dab]Y(Carboxymethyl)DWV[Bip][Ile(3ξ)][Orn][dL][Dab][Cha][Val(3-OH)]SCG[Pra]-OH; thioether N-14),24.3 nM
6,C#CC[C@H](NC(=O)[C@@H](C)NC(=O)[C@@H]1CSCC(=O)N[C@@H](Cc2c[nH]cn2)C(=O)N[C@@H](Cc2ccc(OCC(=O)O)cc2)C(=O)N[C@@H](CC(=O)O)C(=O)N[C@@H](Cc2c[nH]c3ccccc23)C(=O)N[C@@H](C(C)C)C(=O)N[C@@H](Cc2ccc(-c3ccccc3)cc2)C(=O)N[C@@H](C(C)C)C(=O)N[C@@H](CCCN)C(=O)N[C@H](CC(C)C)C(=O)N[C@@H](CCN)C(=O)N[C@@H](CC2CCCCC2)C(=O)N[C@@H](C(C)(C)O)C(=O)N[C@@H](CO)C(=O)N1)C(N)=O [Compound 2327] ({CH2CO}-HY(Carboxymethyl)DWV[Bip]V[Orn][dL][Dab][Cha][Val(3-OH)]SC[dA][Pra]-NH2; thioether N-14),8.5 nM
7,CCCC[C@@H]1NC(=O)CSC[C@@H](C(=O)N[C@@H](CCN)C(N)=O)NC(=O)[C@H](CCC(=O)O)NC(=O)[C@H](C(C)(C)O)NC(=O)[C@H](CC2CCCCC2)NC(=O)[C@H](CCN)NC(=O)[C@@H](CC(C)C)NC(=O)[C@H](CCCN)NC(=O)[C@H](Cc2ccc(C(=O)O)cc2)NC(=O)[C@H](Cc2ccc(-c3ccccc3)cc2)NC(=O)[C@H](Cc2ccc(C(=O)O)cc2)NC(=O)[C@H](Cc2cccc(C)c2)NC(=O)[C@H](CC(=O)O)NC(=O)[C@H](Cc2ccc(OCC(=O)O)cc2)NC1=O [Example 2714] ({CH2CO}-[Nle]Y(Carboxymethyl)D[Phe(3-Me)][Phe(4-COOH)][Bip][Phe(4-COOH)][Orn][dL][Dab][Cha][Val(3-OH)]EC[Dab]-NH2; thioether N-14),0.3 nM

# Continued, values first:
row,IC50,SMILES
1,10.8 nM,CCCCC[C@@H]1NC(=O)[C@H](Cc2c[nH]c3ccccc23)NC(=O)[C@H](CC(=O)O)NC(=O)[C@H](Cc2ccc(OCC(=O)O)cc2)NC(=O)[C@H](CN)NC(=O)CSC[C@@H](C(=O)N[C@@H](C)C(N)=O)NC(=O)[C@H]([C@@H](C)O)NC(=O)[C@H](C(C)C)NC(=O)[C@H](CC2CCCCC2)NC(=O)[C@H](CCN)NC(=O)[C@@H](CC(C)C)NC(=O)[C@H](CCCN)NC(=O)[C@H](CCCNC(N)=O)NC(=O)[C@H](Cc2ccc(-c3ccccc3)cc2)NC1=O [Compound 1360] ({CH2CO}-[Dap]Y(Carboxymethyl)DW[Ahp(2)][Bip][Cit][Orn][dL][Dab][Cha]VTCA-NH2; thioether N-14)
2,10.8 nM,CCCC[C@@H]1NC(=O)[C@H](CCN)NC(=O)[C@@H](CC(C)C)NC(=O)[C@H](CCCN)NC(=O)[C@H](C(C)C)NC(=O)[C@H](Cc2ccc(-c3ccccc3)cc2)NC(=O)[C@H](C(C)C)NC(=O)[C@H](Cc2c[nH]c3ccccc23)NC(=O)[C@H](CC(=O)O)NC(=O)[C@H](Cc2ccc(O)cc2)NC(=O)[C@H](Cc2ccc(OCC(=O)O)cc2)NC(=O)CSC[C@@H](C(=O)N[C@@H](C)C(N)=O)NC(=O)[C@H]([C@@H](C)O)NC(=O)[C@H](C(C)C)NC1=O [Compound 1170] ({CH2CO}-Y(Carboxymethyl)YDWV[Bip]V[Orn][dL][Dab][Nle]VTCA-NH2; thioether N-14)
3,15 nM,CC(C)C[C@H]1NC(=O)[C@H](CCCN)NC(=O)[C@H](C(C)C)NC(=O)[C@H](Cc2ccc(-c3ccccc3)cc2)NC(=O)[C@H](C(C)C)NC(=O)[C@H](Cc2ccc(O)c(Cl)c2)NC(=O)[C@H](CC(=O)O)NC(=O)[C@H](Cc2ccc(OCC(=O)O)cc2)NC(=O)[C@H](CN)NC(=O)CSC[C@@H](C(=O)N[C@@H](CCN)C(N)=O)NC(=O)[C@H](CCCCN)NC(=O)[C@H](C(C)C)NC(=O)[C@H](CC2CCCCC2)NC(=O)[C@H](CCN)NC1=O [Compound 2035] ({CH2CO}-[Dap]Y(Carboxymethyl)D[Tyr(3-Cl)]V[Bip]V[Orn][dL][Dab][Cha]VKC[Dab]-NH2; thioether N-14)
4,30.3 nM,CC(C)C[C@H]1NC(=O)[C@H](CCCN)NC(=O)[C@H](C(C)C)NC(=O)[C@H](Cc2ccc(-c3ccccc3)cc2)NC(=O)[C@H](C(C)C)NC(=O)[C@H](Cc2cccc(C(F)(F)F)c2)NC(=O)[C@H](CC(=O)O)NC(=O)[C@H](Cc2ccc(OCC(=O)O)cc2)NC(=O)[C@H](CN)NC(=O)CSC[C@@H](C(=O)N[C@@H](C)C(N)=O)NC(=O)[C@H]([C@@H](C)O)NC(=O)[C@H](C(C)C)NC(=O)[C@H](CC2CCCCC2)NC(=O)[C@H](CCN)NC1=O [Compound 1576]
5,19.3 nM,CC(C)C[C@H]1NC(=O)[C@H](CCCN)NC(=O)[C@H](CCC(=O)O)NC(=O)[C@H](Cc2ccc(-c3ccccc3)cc2)NC(=O)[C@H](C(C)C)NC(=O)[C@H](Cc2ccccc2F)NC(=O)[C@H](CC(=O)O)NC(=O)[C@H](Cc2ccc(C#N)cc2)NC(=O)[C@H](Cc2ccncc2)NC(=O)CSC[C@@H](C(=O)N[C@@H](C)C(N)=O)NC(=O)[C@H]([C@@H](C)O)NC(=O)[C@H](C(C)C)NC(=O)[C@H](CC2CCCCC2)NC(=O)[C@H](CCN)NC1=O [Compound 2216]

# Same assay, conditions: read-out: Jurkat HPD1_PDL1 IC50; Jurkat-PD-1 cells, PE-labeled PD-L1-Ig 20 nM final
row,SMILES,IC50
1,CC(=O)NCC[C@@H]1NC(=O)[C@H](Cc2ccc(-c3ccccc3)cc2)NC(=O)[C@H](C(C)C)NC(=O)[C@H](Cc2c[nH]c3ccccc23)NC(=O)[C@H](CC(=O)O)NC(=O)[C@H](Cc2ccc(OCC(=O)O)cc2)NC(=O)[C@H](C(C)O)NC(=O)CSC[C@@H](C(N)=O)NC(=O)[C@H](C(C)O)NC(=O)[C@H](C(C)C)NC(=O)[C@H](CC2CCCCC2)NC(=O)[C@H](CCN)NC(=O)[C@@H](CC(C)C)NC(=O)[C@H](CCCN)NC1=O (stereo partly drawn) [Compound 2606] ({CH2CO}-[Thr(3ξ)]Y(Carboxymethyl)DWV[Bip][Dab](Ac)[Orn][dL][Dab][Cha]V[Thr(3ξ)]C-NH2; thioether N-14),76.4 nM
